Measurements as given in patent publication US10266497B2 (ABIDE THERAPEUTICS, INC., priority 2017, dated 2019).

Assays:
MAGL [1] = target: T1, MAGL (Homo sapiens, UniProt Q99685); experiment: In vitro competitive activity-based protein profiling, MAGL, human; conditions: for inhibition at 1 µM: read-out: MAGL % inh. 1 μM (human)
T1 sequence (Q99685 1-303): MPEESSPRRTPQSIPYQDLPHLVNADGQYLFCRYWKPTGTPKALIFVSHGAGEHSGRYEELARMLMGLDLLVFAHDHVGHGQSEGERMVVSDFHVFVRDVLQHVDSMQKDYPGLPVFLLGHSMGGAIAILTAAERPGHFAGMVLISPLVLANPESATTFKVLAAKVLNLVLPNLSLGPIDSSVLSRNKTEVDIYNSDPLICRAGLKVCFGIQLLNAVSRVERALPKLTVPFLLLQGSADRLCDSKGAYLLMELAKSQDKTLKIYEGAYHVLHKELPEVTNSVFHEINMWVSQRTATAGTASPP

MAGL [2] = target: T2, MAGL (Mus musculus, UniProt O35678); experiment: In vitro competitive activity-based protein profiling, MAGL, mouse; conditions: read-out: MAGL % inh. 1 μM (mouse)
T2 sequence (O35678 1-303): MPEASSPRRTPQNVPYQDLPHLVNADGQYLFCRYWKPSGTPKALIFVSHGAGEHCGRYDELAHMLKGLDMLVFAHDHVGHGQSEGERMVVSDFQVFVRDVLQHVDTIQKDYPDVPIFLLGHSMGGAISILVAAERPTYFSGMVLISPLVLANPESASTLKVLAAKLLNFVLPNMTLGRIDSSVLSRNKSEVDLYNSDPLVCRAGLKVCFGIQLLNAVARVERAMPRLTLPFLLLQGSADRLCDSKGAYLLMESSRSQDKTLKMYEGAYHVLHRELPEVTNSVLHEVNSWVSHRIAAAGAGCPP
Protocol: (§1) Biological Evaluation In Vitro Competitive Activity-Based Protein Profiling.
(§2) Proteomes (mouse brain membrane fraction for mouse assays; human prefrontal cortex membrane fractions for human assays) (50 mL, 1.0 mg/mL total protein concentration) were preincubated with varying concentrations of inhibitors at 37° C. After 30 min, FP-Rh (1.0 mL, 50 mM in DMSO) was added and the mixture was incubated for another 30 min at 37° C. Reactions were quenched with SDS loading buffer (15 μL—4λ) and run on SDS-PAGE.

FAAH [3] = target: T3, FAAH (Homo sapiens, UniProt O00519); experiment: In vitro competitive activity-based protein profiling, FAAH, human; conditions: for inhibition at 1 µM: read-out: FAAH % inh. 1 μM (human)
T3 sequence (O00519 1-579): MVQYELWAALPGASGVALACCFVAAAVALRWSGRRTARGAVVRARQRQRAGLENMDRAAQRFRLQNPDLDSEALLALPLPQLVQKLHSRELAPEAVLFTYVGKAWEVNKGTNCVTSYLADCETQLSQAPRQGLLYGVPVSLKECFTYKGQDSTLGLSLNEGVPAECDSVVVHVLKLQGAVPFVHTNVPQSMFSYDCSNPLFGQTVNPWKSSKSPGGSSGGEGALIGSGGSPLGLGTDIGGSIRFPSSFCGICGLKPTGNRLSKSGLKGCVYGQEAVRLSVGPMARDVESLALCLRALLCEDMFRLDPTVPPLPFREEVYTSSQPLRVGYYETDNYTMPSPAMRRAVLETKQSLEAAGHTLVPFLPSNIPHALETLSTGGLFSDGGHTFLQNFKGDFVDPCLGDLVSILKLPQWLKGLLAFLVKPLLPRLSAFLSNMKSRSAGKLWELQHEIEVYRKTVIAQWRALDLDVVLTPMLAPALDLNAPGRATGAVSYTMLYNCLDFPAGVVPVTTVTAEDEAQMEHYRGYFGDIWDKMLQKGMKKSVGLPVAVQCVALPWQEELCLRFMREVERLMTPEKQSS

FAAH [4] = target: T4, FAAH (Mus musculus, UniProt O08914); experiment: In vitro competitive activity-based protein profiling, FAAH, mouse; conditions: read-out: FAAH % inh. 1 μM (mouse)
T4 sequence (O08914 1-579): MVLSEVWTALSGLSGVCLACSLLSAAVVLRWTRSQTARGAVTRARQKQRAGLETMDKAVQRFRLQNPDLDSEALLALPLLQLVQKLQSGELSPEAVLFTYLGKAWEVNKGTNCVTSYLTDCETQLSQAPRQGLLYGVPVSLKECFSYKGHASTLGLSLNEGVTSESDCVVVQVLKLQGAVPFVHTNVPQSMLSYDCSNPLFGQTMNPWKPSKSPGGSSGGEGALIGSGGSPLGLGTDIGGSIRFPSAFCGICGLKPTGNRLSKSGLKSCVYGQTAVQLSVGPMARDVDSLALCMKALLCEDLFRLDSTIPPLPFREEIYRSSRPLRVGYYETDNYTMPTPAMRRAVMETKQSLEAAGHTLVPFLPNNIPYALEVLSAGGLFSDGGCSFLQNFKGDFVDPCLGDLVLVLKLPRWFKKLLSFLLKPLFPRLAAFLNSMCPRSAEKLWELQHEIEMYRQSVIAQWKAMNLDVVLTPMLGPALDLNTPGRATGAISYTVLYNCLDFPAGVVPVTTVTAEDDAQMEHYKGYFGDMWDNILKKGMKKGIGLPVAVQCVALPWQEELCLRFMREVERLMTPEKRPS
Protocol: as §1, §2

inhibition at 1 µM (MAGL [1]) | inhibition at 1 µM (MAGL [2]) | inhibition at 10 µM (FAAH [3]; read-out: FAAH % inh. (human) at 10 uM) | inhibition at 1 µM (FAAH [4]) | inhibition at 1 µM (FAAH [3]) | IC50 (FAAH [3]) | IC50 (MAGL [1]) | Structure (SMILES)
25 to 50% | 50 to 75% | > 75% | 0 to 25% | – | – | – | O=C(O)c1ccn(C(=O)N2CCN(Cc3ccc(Cl)cc3)CC2)n1 [Example 1, 1-(4-(4-chlorobenzyl)piperazine-1-carbonyl)-1H-pyrazole-3-carboxylic Acid]
> 75% | 50 to 75% | – | 0 to 25% | 0 to 25% | – | – | O=C(O)c1ccn(C(=O)N2CCN(Cc3ccc(C(F)(F)F)cc3-c3nnn[nH]3)CC2)n1 [Example 5, 1-(4-(2-(1H-Tetrazol-5-yl)-4-(trifluoromethyl)benzyl)piperazine-1-carbonyl)-1H-pyrazole-3-carboxylic Acid]
> 75% | > 75% | – | 0 to 25% | 0 to 25% | – | – | O=C(O)c1ccn(C(=O)N2CCN(Cc3ccc(C(F)(F)F)c(-c4nnco4)c3)CC2)n1 [Example 9, 1-(4-(3-(1,3,4-oxadiazol-2-yl)-4-(trifluoromethyl)benzyl)piperazine-1-carbonyl)-1H-pyrazole-3-carboxylic Acid]
25 to 50% | 25 to 50% | – | 0 to 25% | 0 to 25% | – | – | NC(=O)c1ccc(CN2CCN(C(=O)n3ccc(C(=O)O)n3)CC2)cc1C(F)(F)F [Example 14, 1-(4-(4-Carbamoyl-3-(trifluoromethyl)benzyl)piperazine-1-carbonyl)-1H-pyrazole-3-carboxylic Acid]
> 75% | > 75% | – | 50 to 75% | 0 to 25% | 1000 to 10000 nM | – | Cc1cc(-c2ccccc2)ccc1CN1CCN(C(=O)n2ccc(C(=O)O)n2)CC1 [Example 16, 1-(4-((3-Methyl-[1,1′-biphenyl]-4-yl)methyl)piperazine-1-carbonyl)-1H-pyrazole-3-carboxylic Acid]
50 to 75% | 25 to 50% | – | 0 to 25% | 0 to 25% | – | – | O=C(O)c1ccn(C(=O)N2CCN(Cc3cccc(Oc4cccnc4)c3)CC2)n1 [Example 18, 1-(4-(3-(Pyridin-3-yloxy)benzyl)piperazine-1-carbonyl)-1H-pyrazole-3-carboxylic Acid]
> 75% | > 75% | – | > 75% | > 75% | 100 to 1000 nM | – | O=C(O)c1ccn(C(=O)N2CCN(Cc3cc(Cl)cc(Oc4ccc(Cl)cc4)c3)CC2)n1 [Example 19, 1-(4-(3-Chloro-5-(4-chlorophenoxy)benzyl)piperazine-1-carbonyl)-1H-pyrazole-3-carboxylic Acid]
> 75% | > 75% | – | > 75% | > 75% | 1000 to 10000 nM | 100 to 1000 nM | O=C(O)c1nn(C(=O)N2CC3CN(Cc4ccc(-c5cnc6ccccn56)cc4C(F)(F)F)CC3C2)cc1Cl (stereo not shown) [Example 20, 4-Chloro-1-(5-(4-(imidazo[1,2-a]pyridin-3-yl)-2-(trifluoromethyl)benzyl)octahydropyrrolo[3,4-c]pyrrole-2-carbonyl)-1H-pyrazole-3-carboxylic Acid]
> 75% | > 75% | – | 0 to 25% | 0 to 25% | – | – | CN(Cc1ccc(Cl)c(N2CCCC2)c1)C1(C)CCN(C(=O)n2ccc(C(=O)O)n2)CC1 [Example 39, 1-(4-((4-chloro-3-(pyrrolidin-1-yl)benzyl)(methyl)amino)-4-methylpiperidine-1-carbonyl)-1H-pyrazole-3-carboxylic acid]
> 75% | > 75% | – | 0 to 25% | > 75% | 100 to 1000 nM | 100 to 1000 nM | O=C(O)c1ccn(C(=O)N2CCC(OCc3cc(F)cc(Cl)c3)CC2)n1 [Example 42, 1-(4-((3-chloro-5-fluorobenzyl)oxy)piperidine-1-carbonyl)-1H-pyrazole-3-carboxylic acid]
> 75% | > 75% | – | 0 to 25% | 0 to 25% | – | – | O=C(O)c1ccn(C(=O)N2CCC3(CCN(Cc4cc(Cl)cc(N5CCCC5)c4)C3)CC2)n1 [Example 44, 1-(2-(3-chloro-5-(pyrrolidin-1-yl)benzyl)-2,8-diazaspiro[4.5]decane-8-carbonyl)-1H-pyrazole-3-carboxylic acid]
> 75% | > 75% | – | > 75% | > 75% | 100 to 1000 nM | – | O=C(O)c1ccn(C(=O)N2CCN(Cc3ccc(Oc4ccc(Cl)cc4)cc3)CC2)n1 [Example 45, 1-(4-(4-(4-chlorophenoxy)benzyl)piperazine-1-carbonyl)-1H-pyrazole-3-carboxylic acid]
> 75% | > 75% | – | 0 to 25% | 0 to 25% | – | – | CN(Cc1ccc(Cl)cc1N1CCCC1)C1(C)CCN(C(=O)n2ccc(C(=O)O)n2)CC1 [Example 46, 1-(4-((4-chloro-2-(pyrrolidin-1-yl)benzyl)(methyl)amino)-4-methylpiperidine-1-carbonyl)-1H-pyrazole-3-carboxylic acid]
> 75% | > 75% | – | 0 to 25% | 0 to 25% | – | – | CN(Cc1cccc(Cl)c1N1CCCC1)C1(C)CCN(C(=O)n2ccc(C(=O)O)n2)CC1 [Example 47, 1-(4-((3-chloro-2-(pyrrolidin-1-yl)benzyl)(methyl)amino)-4-methylpiperidine-1-carbonyl)-1H-pyrazole-3-carboxylic acid]
> 75% | > 75% | – | 0 to 25% | 0 to 25% | – | – | O=C(O)c1ccn(C(=O)N2CCN(Cc3ccc(C(F)(F)F)cc3N3CCN4CCC[C@H]4C3)CC2)n1 [Example 49, (S)-1-(4-(2-(hexahydropyrrolo [1,2-a]pyrazin-2(1H)-yl)-4-(trifluoromethyl)benzyl)piperazine-1-carbonyl)-1H-pyrazole-3-carboxylic acid]
– | – | – | 0 to 25% | 0 to 25% | – | – | C[C@@H]1CC[C@H](C)N1c1cc(C(F)(F)F)ccc1CN(C)C1(C)CCN(C(=O)n2ccc(C(=O)O)n2)CC1 [Example 160, 1-(4-((2-((2R,5S)-2,5-dimethylpyrrolidin-1-yl)-4-(trifluoromethyl)benzyl)(methyl)amino)-4-methylpiperidine-1-carbonyl)-1H-pyrazole-3-carboxylic acid]

Structure (SMILES) | inhibition at 1 µM (MAGL [1]) | inhibition at 1 µM (MAGL [2]) | inhibition at 10 µM (FAAH [3]; read-out: FAAH % inh. (human) at 10 uM) | inhibition at 1 µM (FAAH [4]) | inhibition at 1 µM (FAAH [3]) | IC50 (FAAH [3]) | IC50 (MAGL [1])
O=C(O)c1ccn(C(=O)N2C[C@H]3C[C@@H](OCc4ccccc4Cl)C[C@H]3C2)n1 [Example 41, 1-(cis-5-((2-chlorobenzyl)oxy)octahydrocyclo-penta[c]pyrrole-2-carbonyl)-1H-pyrazole-3-carboxylic acid] | > 75% | 0 to 25% | – | 0 to 25% | > 75% | – | –
